Reference: patent US4031077A, “Antibacterial 3-phosphono penams” (priority 1976, dated 1977)
Values joined by “and” are separate entries in the source; they are usually repeats but may differ in a detail not shown here. Equal entries are not always repeated. Structures can show the parent of a compound that is named as a salt. Where two headings read alike, the source gives them in different places.

Key:
Staph. aureus = assay type: cell-based, Staphlococcus aureus
Strep. equi. = assay: microbe, parasite or virus in culture; assay type: cell-based, Streptococcus equis; conditions: 10^5-10^6 cells, 37° C., anaerobic, sodium salt, Test No. 1-2
Strep. zoo. = assay type: cell-based, Streptococcus zoobacter; conditions: Strep. zoo. strain 02H001, brain-heart infusion agar, 10^5-10^6 cells, 37° C., anaerobic, sodium salt, Test No. 1-3

Structure (SMILES) | MIC (minimal inhibitory concentration) (Staph. aureus; Staph. aureus strain 01A005, brain-heart infusion agar, 10^5-10^6 cells, 37° C., anaerobic, sodium salt, Test No. 1-3) [µg/mL] | MIC (minimal inhibitory concentration) (Staph. aureus; Staph. aureus strain 01A006, brain-heart infusion agar, 10^5-10^6 cells, 37° C., anaerobic, sodium salt, Test No. 1-3) [µg/mL] | MIC (minimal inhibitory concentration) (Strep. equi.; Strep. equi. strain 02I001, brain-heart infusion agar) [µg/mL] | MIC (minimal inhibitory concentration) (Strep. zoo.) | MIC (minimal inhibitory concentration) (Staph. aureus; Staph. aureus strain 01A006; brain-heart infusion agar, 10^5-10^6 cells, 37° C., anaerobic; sodium salt; Test No. 1-3) [µg/mL] | MIC (Strep. equi.; Streptococcus equi, Strep. equi. strain 02I001, brain-heart infusion agar, read-out: MIC (minimal inhibitory concentration)) [µg/mL]
CC1(C)S[C@@H]2C(NC(=O)COc3ccccc3)C(=O)N2C1P(=O)(O)O.[Na] (stereo partly drawn) [6-(2-Phenoxyacetamido)-2,2-dimethyl-3-phosphonopenam, sodium salt] | > 200 | > 200 | 100 | 100 µg/mL and 200 µg/mL |  | 
COP(=O)(O)C1N2C(=O)C(NC(=O)COc3ccccc3)C2SC1(C)C (stereo not drawn) [6-(2-Phenoxyacetamido)-2,2-dimethyl-3-(0-methylphosphono)penam, sodium salt] |  |  |  |  | 200 | 200
